Experimental findings from PubChem BioAssay AID1745844 (Carcinogenic Potency Database (CPDB), 2022) are described below.

This series has as its system rodent lifetime carcinogenesis bioassay, tumor incidence TD50. As to the kind of experiment: carcinogenic potency in animals, long-term in vivo studies, CPDB compilation (AID 1745844).

The source made the active and inactive calls. How the calls were made is not given here. Peptide text beside a SMILES is read from it.

For the compound `C=Cc1ccccc1`, the TD50 was 625 mg/kg/day (mouse, strain B6C3F1, females, by gavage, site: any site (literature study), lesion: several types, types named in the paper, dosed 78 weeks, study length 91 weeks); 905 mg/kg/day (mouse, strain B6C3F1, females, by gavage, site: liver, lesion: hepatocellular adenoma + hepatocellular carcinoma + neoplastic nodule, dosed 78 weeks, study length 91 weeks); 905 mg/kg/day (inactive) (mouse, strain B6C3F1, females, by gavage, site: liver, lesion: hepatocellular adenoma, dosed 78 weeks, study length 91 weeks); 1380 mg/kg/day (mouse, strain B6C3F1, females, by gavage, site: lung, lesion: alveolar/bronchiolar adenoma + alveolar/bronchiolar carcinoma, dosed 78 weeks, study length 91 weeks); 659 mg/kg/day (mouse, strain B6C3F1, males, by gavage, site: any site (literature study), lesion: several types, types named in the paper, dosed 78 weeks, study length 91 weeks); 895 mg/kg/day (mouse, strain B6C3F1, males, by gavage, site: liver, lesion: hepatocellular adenoma + hepatocellular carcinoma + neoplastic nodule, dosed 78 weeks, study length 91 weeks). Also, the TD50 (mouse, strain B6C3F1, males, by gavage, site: lung, lesion: alveolar/bronchiolar adenoma + alveolar/bronchiolar carcinoma, dosed 78 weeks, study length 91 weeks) stood at 360 mg/kg/day; the TD50 (mouse, strain Charles River CD1, females, inhaled, site: any site (literature study), lesion: several types, types named in the paper, dosed 98 weeks, study length 98 weeks) is 400 mg/kg/day; the TD50 (mouse, strain Charles River CD1, females, inhaled, site: liver, lesion: several types, types named in the paper, dosed 98 weeks, study length 98 weeks) is 13600 mg/kg/day; the TD50 (mouse, strain Charles River CD1, females, inhaled, site: lung, lesion: alveolar/bronchiolar adenoma, dosed 98 weeks, study length 98 weeks) was 331 mg/kg/day; the TD50 (mouse, strain Charles River CD1, females, inhaled, site: lung, lesion: alveolar/bronchiolar carcinoma, dosed 98 weeks, study length 98 weeks) is 1300 mg/kg/day; the TD50 (mouse, strain Charles River CD1, males, inhaled, site: any site (literature study), lesion: several types, types named in the paper, dosed 104 weeks, study length 105 weeks) amounted to 209 mg/kg/day. Also, the TD50 was 2860 mg/kg/day (mouse, strain Charles River CD1, males, inhaled, site: liver, lesion: hepatocellular carcinoma, dosed 104 weeks, study length 105 weeks); 465 mg/kg/day (mouse, strain Charles River CD1, males, inhaled, site: lung, lesion: alveolar/bronchiolar adenoma, dosed 78 weeks, study length 78 weeks); 154 mg/kg/day (mouse, strain Charles River CD1, males, inhaled, site: lung, lesion: alveolar/bronchiolar adenoma, dosed 104 weeks, study length 105 weeks); 1770 mg/kg/day (mouse, strain Charles River CD1, males, inhaled, site: lung, lesion: alveolar/bronchiolar carcinoma, dosed 104 weeks, study length 105 weeks); 12200 mg/kg/day (inactive) (rat, strain Charles River CD (Sprague-Dawley), females, inhaled, site: liver, lesion: hepatocellular adenoma, dosed 104 weeks, study length 106 weeks); 9930 mg/kg/day (inactive) (rat, strain Charles River CD (Sprague-Dawley), males, inhaled, site: liver, lesion: several types, types named in the paper, dosed 104 weeks, study length 106 weeks). The TD50 is 25200 mg/kg/day (rat, strain Fischer 344, females, by gavage, site: liver, lesion: hepatocellular adenoma + hepatocellular carcinoma + neoplastic nodule, dosed 90 weeks, study length 97 weeks); 3410 mg/kg/day (inactive) (rat, strain Fischer 344, males, by gavage, site: any site (literature study), lesion: several types, types named in the paper, dosed 90 weeks, study length 97 weeks); 12 mg/kg/day (rat, strain Sprague-Dawley, females, by gavage, site: any site (literature study), lesion: several types, types named in the paper, dosed 52 weeks, study length 104 weeks); 205 mg/kg/day (rat, strain Sprague-Dawley, females, inhaled, site: any site (literature study), lesion: malignant tumor, dosed 52 weeks, study length 104 weeks); 48.7 mg/kg/day (rat, strain Sprague-Dawley, females, inhaled, site: any site (literature study), lesion: several types, types named in the paper, dosed 52 weeks, study length 104 weeks); 57.1 mg/kg/day (rat, strain Sprague-Dawley, females, inhaled, site: mammary tissue, wider than the gland, lesion: malignant tumor, dosed 52 weeks, study length 104 weeks). The TD50 reads like this: (rat, strain Sprague-Dawley, females, inhaled, site: mammary tissue, wider than the gland, lesion: several types, types named in the paper, dosed 52 weeks, study length 104 weeks) 23.3 mg/kg/day; (rat, strain Sprague-Dawley, males, by gavage, site: any site (literature study), lesion: malignant tumor, dosed 52 weeks, study length 104 weeks) 1090 mg/kg/day; (rat, strain Sprague-Dawley, males, by gavage, site: any site (literature study), lesion: several types, types named in the paper, dosed 52 weeks, study length 104 weeks) 1220 mg/kg/day; (rat, strain Sprague-Dawley, males, inhaled, site: any site (literature study), lesion: several types, types named in the paper, dosed 52 weeks, study length 104 weeks) 107 mg/kg/day. The carcinogen call reads like this: (rat, strain Charles River CD (Sprague-Dawley), females, inhaled, site: liver, lesion: one or several types, types not named, dosed 52 weeks, study length 52 weeks) “negative (inactive)”; (rat, strain Charles River CD (Sprague-Dawley), males, inhaled, site: liver, lesion: one or several types, types not named, dosed 52 weeks, study length 52 weeks) “negative (inactive)”; (rat, strain Fischer 344, females, by gavage, site: any site (literature study), lesion: several types, types named in the paper, dosed 90 weeks, study length 97 weeks) “negative (inactive)”.

For the compound `FC(Cl)C(F)(F)F` (stereo unspecified), the TD50 was 56300 mg/kg/day (inactive) (rat, strain Charles River CD (Sprague-Dawley), females, inhaled, site: mammary gland, lesion: fibroadenoma, dosed 104 weeks, study length 104 weeks) and 54000 mg/kg/day (inactive) (rat, strain Charles River CD (Sprague-Dawley), females, inhaled, site: mammary gland, lesion: several types, types named in the paper, dosed 104 weeks, study length 104 weeks).

As to `COC(=O)[C@H](Cc1ccccc1)NC(=O)[C@@H](N)CC(=O)O` (H-Asp-Phe-OMe), the carcinogen call is, setting by setting: (rat, strain Charles River CD (Sprague-Dawley), females, in feed, site: any site (literature study), lesion: several types, types named in the paper, dosed 104 weeks, study length 104 weeks) “negative (inactive)”; (rat, strain Charles River CD (Sprague-Dawley), females, in feed, site: liver, lesion: hepatoma, benign, dosed 104 weeks, study length 104 weeks) “negative (inactive)”; (rat, strain Charles River CD (Sprague-Dawley), males, in feed, site: any site (literature study), lesion: several types, types named in the paper, dosed 104 weeks, study length 104 weeks) “negative (inactive)”; (rat, strain Slc-Wistar, females, in feed, site: brain, lesion: several types, types named in the paper, dosed 104 weeks, study length 104 weeks) “negative (inactive)”. The TD50 reads like this: (rat, strain Charles River CD (Sprague-Dawley), females, in feed, site: brain, lesion: several types, types named in the paper, dosed 104 weeks, study length 104 weeks) 118000 mg/kg/day (inactive); (rat, strain Charles River CD (Sprague-Dawley), males, in feed, site: brain, lesion: several types, types named in the paper, dosed 104 weeks, study length 104 weeks) 666000 mg/kg/day (inactive); (rat, strain Charles River CD (Sprague-Dawley), males, in feed, site: liver, lesion: hepatoma, benign, dosed 104 weeks, study length 104 weeks) 1.3e+06 mg/kg/day (inactive); (rat, strain Slc-Wistar, males, in feed, site: brain, lesion: several types, types named in the paper, dosed 104 weeks, study length 104 weeks) 186000 mg/kg/day (inactive).

What is called TD50 is the 50% point of the dose-response relation for the toxic effect studied.
